Earlier results in PMC2777304 (PLoS Pathogens, 2009).
Structures can show the parent of a compound that is named as a salt.

Conditions: mouse, in vivo

In the case of `CCN(CC)CCCC(C)Nc1c2ccc(Cl)cc2nc2ccc(OC)cc12` (stereo not shown) [quinacrine, Quinacrine dihydrochloride], the “Highest nontoxic tolerable dose” value is listed as 40 mg/kg/day.
